Experiment: Release in artificial intestinal juice
Assay type: physicochemical
Conditions: for Release in artificial intestinal juice, percent of the substance released: permeable bag, amount calculated on 100 mg free base; for release rate compared to the hydrochloride salt: in artificial intestinal juice
Experimental: Investigations on release were carried out in a Sotax AT7 smart release apparatus with UV measurement (Perkin Elmer photometer).
A vessel with Wood apparatus was used (for intrinsic release).
A pressing of 0.5 cm^2 surface area (diameter 8 mm) was produced with a force of 200 N using approximately 100 mg of active ingredient.
Release was carried out in a release medium, which is composed as described below: • Intestinal juice without pancreas powder, pH 6.8 (analogous to Ph. Eur.); 250.0 ml 6.8 g of potassium dihydrogenphosphate R+0.896 g of NaOH+water to 1000.0 ml.
Release was carried out in a release volume of in each case 500±5 ml at a temperature of the release medium of 37±1° C. with a stirring speed of 100±5 rpm.
The content determination was carried out by means of spectroscopic methods (UV spectroscopy, wavelength: 271 nm, cuvette: 10 mm). Sample taking was carried out manually.
In this release experiment, the individual compounds were placed in a permeable bag in an amount in each case calculated on 100 mg of the free base.
The results, expressed in percent of the substance released, are reproduced in the following tables. In this case, the compounds denote: HCl: hydrochloride; A: cinnamate; B: palmitate; C: decanoate; E: hemi-fumarate and F: hemi-sebacate.

| Compound | Release in artificial intestinal juice, percent of the substance released (t 2 min) | Release in artificial intestinal juice, percent of the substance released (t 4 min) | Release in artificial intestinal juice, percent of the substance released (t 6 min) | Release in artificial intestinal juice, percent of the substance released (t 8 min) | Release in artificial intestinal juice, percent of the substance released (t 10 min) | Release in artificial intestinal juice, percent of the substance released (t 12 min) | Release in artificial intestinal juice, percent of the substance released (t 15 min) | Release in artificial intestinal juice, percent of the substance released (t 30 min) | release rate compared to the hydrochloride salt |
| --- | --- | --- | --- | --- | --- | --- | --- | --- | --- |
| CN(C)CC1CCCCC1(O)c1cccc(O)c1.O=C(O)C=Cc1ccccc1 (stereo not drawn) [A-1] | 58.49% | 74.11% | 84.48% | 91.49% | 92.24% | 96.63% | 97.34% | 102.44% | – |
| CN(C)CC1CCCCC1(O)c1cccc(O)c1.O=C(O)C=Cc1ccccc1 (stereo not drawn) [A-2] | 53.05% | 76.86% | 86.98% | 96.27% | 94.24% | 95.42% | 98.53% | 98.80% | – |
| CCCCCCCCCCCCCCCC(=O)O.CN(C)CC1CCCCC1(O)c1cccc(O)c1 [B-1] | 17.63% | 31.60% | 55.36% | 53.71% | 67.26% | 69.49% | 76.13% | 95.50% | – |
| CCCCCCCCCC(=O)O.CN(C)CC1CCCCC1(O)c1cccc(O)c1 (stereo not drawn) [C-1] | 79.57% | 93.67% | 99.13% | 99.87% | 99.63% | 99.80% | 99.92% | 100.27% | – |
| CCCCCCCCCC(=O)O.CN(C)CC1CCCCC1(O)c1cccc(O)c1 (stereo not drawn) [C-2] | 92.62% | 99.12% | 99.74% | 99.73% | 99.55% | 99.73% | 99.56% | 99.77% | – |
| CN(C)CC1CCCCC1(O)c1cccc(O)c1.CN(C)CC1CCCCC1(O)c1cccc(O)c1.O=C(O)C=CC(=O)O (stereo not drawn) [E-1] | 99.32% | 100.25% | 99.24% | 99.47% | 100.58% | 99.42% | 98.40% | 100.24% | – |
| CN(C)CC1CCCCC1(O)c1cccc(O)c1.CN(C)CC1CCCCC1(O)c1cccc(O)c1.O=C(O)C=CC(=O)O (stereo not drawn) [E-2] | 95.38% | 96.67% | 95.80% | 96.46% | 96.47% | 96.45% | 96.19% | 96.42% | – |
| CN(C)CC1CCCCC1(O)c1cccc(O)c1.CN(C)CC1CCCCC1(O)c1cccc(O)c1.O=C(O)CCCCCCCCC(=O)O (stereo not drawn) [F-1] | 90.31% | 95.86% | 98.37% | 99.10% | 98.48% | 98.55% | 99.15% | 98.74% | – |
| CN(C)CC1CCCCC1(O)c1cccc(O)c1.CN(C)CC1CCCCC1(O)c1cccc(O)c1.O=C(O)CCCCCCCCC(=O)O (stereo not drawn) [F-2] | 96.05% | 99.26% | 100.16% | 1.21% | 100.92% | 101.24% | 101.22% | 101.26% | – |
| CN(C)C[C@H]1CCCC[C@]1(O)c1cccc(O)c1.Cl [HCl-1] | 99.16% | 99.89% | 98.77% | 101.08% | 100.57% | 100.66% | 99.62% | 101.02% | – |
| CN(C)C[C@H]1CCCC[C@]1(O)c1cccc(O)c1.Cl [HCl-2] | 97.72% | 98.52% | 100.41% | 98.83% | 100.29% | 98.70% | 100.05% | 99.96% | – |
| CCCCCCCCCC(=O)O.CN(C)CC1CCCCC1(O)c1cccc(O)c1 (stereo not drawn) [decanoate] | – | – | – | – | – | – | – | – | decreased release rates compared to the hydrochloride salt |
| octanoate | – | – | – | – | – | – | – | – | decreased release rates compared to the hydrochloride salt |

Source: US20110251286A1, “Crystalline salts and/or co-crystals of O-desmethyltramadol” (GRUENENTHAL GmbH, priority 2010, published 2011)
